Assay results taken from patent US20210275447A1, “SUSTAINED-RELEASE OPHTHALMIC PHARMACEUTICAL COMPOSITIONS AND USES THEREOF” (TAIWAN LIPOSOME CO., LTD., priority 2018, published 2021).
Structures can show the parent of a compound that is named as a salt.

What was measured:
[1] = In vitro release through dialysis bag in rabbit vitreous humor; assay type: in vitro ADME; conditions: PBS pH 7.4, 37° C., released immediately, FIG. 1
Protocol: Each dialysis bag contained 950 μL of rabbit vitreous humor (Pel-Freez Biologicals, USA) and both ends of the dialysis bags were then sealed. Each dialysis bag was immersed in 25 mL of PBS at pH 7.4 in a 50-mL centrifuge tube and incubated in a water bath at 37±1° C. for 24 hours. At designated time points after incubation (1, 2, 4, 6, 24, 48, 122, 146 and 168 hours), 0.5 mL aliquot from the 25 mL PBS inside each centrifuge tube was sampled and 0.5 mL of fresh PBS was added to replenish the sampled aliquot. Drug concentrations of the sampled aliquots at each time point were analyzed using high performance liquid chromatography (HPLC) to create the in vitro release profile of the liposomal composition.

[2] = Drug loading of liposomes by remote loading: drug to lipid molar ratio and encapsulation efficiency; assay type: physicochemical; conditions: 300 mM AS, 2 mg/mL drug
Protocol: The dry lipid was hydrated in a trapping agent, 300 mM ammonium sulfate (AS), for 30 min at the temperature above the transition temperature to form the MLVs. […] After extrusion, unencapsulated trapping agent was removed by dialysis method or diafiltration method against 9.4% sucrose solution or 0.9% NaCl to create a polyatomic ion gradient between the inner aqueous phase and the outer aqueous phase of the empty liposomes.
A reaction mixture containing 10.0 mg/mL of sunitinib (LC Laboratories, USA), empty liposomes (with 20.0 mM of lipids prepared according to Example 1), and 40 mM histidine buffer (pH 7) was incubated at 40° C. for 15 min The unencapsulated sunitinib of the reaction mixture was removed by a Sephadex™ G-50 Fine gel (GE Healthcare, USA) or dialysis bag (Spectrum Labs, USA) against a 9.4% sucrose solution to obtain a liposomal sunitinib formulation. The encapsulated sunitinib concentration and the lipid concentration of the liposomal sunitinib formulation were measured using an ultraviolet/visible (UV/Vis) spectrophotometer to calculate the drug to lipid molar ratio (D/L) of the liposomal sunitinib formulation.
The encapsulation efficiency was calculated by comparing the drug to lipid molar ratio (D/L) of the liposomal sunitinib formulation to the nominal D/L of the reaction mixture, which is dividing the initial added concentration of sunitinib by the initial added concentration of lipid of empty liposome.
An initial loading concentration of 4.0 mg/mL of sunitinib or sunitinib malate was mixed with the empty liposomes according to the procedures of Example 2.

[3] = liposomes DOPC/cholesterol (66.7/33.3)
[4] = liposomes POPC/cholesterol (66.7/33.3)

Row | SMILES | time after which release reached a plateau [1] [h] | EE (%), encapsulation efficiency [2, 3] [%] | Purified D/PL (mole/mole) [2, 3] [mole/mole] | EE (%), encapsulation efficiency [2, 4] [%] | Purified D/PL (mole/mole) [2, 4] [mole/mole]
1 | CCN(CC)CCNC(=O)c1c(C)[nH]c(/C=C2\C(=O)Nc3ccc(F)cc32)c1C [free sunitinib, sunitinib] | 6 | – | – | – | –
2 | Cc1ccc(NC(=O)c2ccc(CN3CCN(C)CC3)cc2)cc1Nc1nccc(-c2cccnc2)n1 [Imatinib, imatinib mesylate] | – | 91.3 | 1.24 | 66.6 | 0.90
